Experimental findings from EPA's ToxRefDB 2 are described below.

The subject of series [1] is mouse. To be noted: Subchronic oral toxicity in rodents, b6c3f1, Water, dose end: 13 week, group: systemic.
Series [2] deals with mouse. As to conditions: Combined chronic toxicity/carcinogenicity, cd1, Oral, Feed, dose end: 89 week, group: systemic.
Series [3] deals with rat. To be noted: Multigenerational reproductive toxicity study, sprague dawley, Oral, Feed, dose end: 2 generation.
For series [4], the system named is rat. To be noted: Combined chronic toxicity/carcinogenicity; sprague dawley; Oral; Feed; dose end: 115 week; group: systemic; systemic / in life observation / body weight / body weight.
The subject of series [5] is dog. To be noted: Chronic toxicity, beagle, Oral, Feed, dose end: 12 month, group: systemic.
The test system of series [6] is rabbit. To be noted: Prenatal developmental toxicity study, new zealand white, Oral, Capsule, dose end: 18 GD.
Series [7] has as its system mouse. As to conditions: Carcinogenicity; cd1; Oral; Feed; dose end: 18 month; group: systemic; systemic / pathology microscopic / liver / vacuolization + systemic / pathology microscopic / seminal vesicle / distended + systemic / ….
Series [8] relates to rabbit. To be noted: Prenatal developmental toxicity study, new zealand white, Oral, Gavage/Intubation, dose end: 19 GD.
Series [9] deals with rat. As to conditions: Combined chronic toxicity/carcinogenicity, other, Oral, Feed, dose end: 24 month, group: systemic.
Series [10] concerns rat. To be noted: Prenatal developmental toxicity study, other, Oral, Gavage/Intubation, dose end: 16 GD.
Series [11] relates to rat. To be noted: Multigenerational reproductive toxicity study, sprague dawley, Oral, Feed, dose end: 2 generation. This is another data set of the same source.
For series [12], the system named is rat. As to conditions: Subchronic oral toxicity in rodents, sprague dawley, Feed, dose end: 90 day, group: systemic.
Series [13] has as its system rat. As to conditions: Combined chronic toxicity/carcinogenicity, sprague dawley, Oral, Feed, dose end: 24 month, group: systemic.
The test system of series [14] is mouse. To be noted: Carcinogenicity, cd1, Oral, Feed, dose end: 18 month, group: systemic.
In series [15] the test system is dog. As to conditions: Chronic toxicity, beagle, Oral, Capsule, dose end: 52 week, group: systemic.
Series [16] relates to rabbit. To be noted: Sub-acute dermal toxicity, new zealand white, Topical, dose end: 21 day, group: systemic.
For series [17], the system named is rat. As to conditions: Prenatal developmental toxicity study, wistar, Oral, Gavage/Intubation, dose end: 15 GD.
[18] abbreviates: systemic / in life observation / body weight / body weight + systemic / in life observation / clinical signs / emaciation + systemic / in ….
Where [19] appears, read: systemic / pathology microscopic / nose / degeneration.
Setting [20] is: systemic / in life observation / mortality / mortality.
Where [21] appears, read: group: offspring, systemic / in life observation / body weight / offspring (pup) weight.
The mark [22] stands for this setting: group: offspring, systemic / organ weight / liver / relative to body weight.
The mark [23] stands for this setting: group: parental, systemic / organ weight / kidney / relative to body weight.
The mark [24] stands for this setting: systemic / pathology microscopic / lung / [other] + systemic / in life observation / clinical signs / inappetence + systemic / in life ….
Where [25] appears, read: group: developmental, developmental / developmental malformation / bone / irregular ossification.
Setting [26] is: group: maternal, reproductive / reproductive performance / aborted / aborted + systemic / in life observation / clinical signs / ataxia.
Setting [27] is: group: maternal, reproductive / reproductive performance / aborted / aborted + systemic / in life observation / clinical signs / ataxia + systemic / in life ….
The mark [28] stands for this setting: group: developmental, developmental / developmental malformation / other / other.
Setting [29] is: group: maternal, reproductive / reproductive performance / postimplantation loss / postimplantation loss + reproductive / reproductive performance / ….
Where [30] appears, read: systemic / organ weight / brain / absolute + systemic / organ weight / brain / relative to body weight.
Setting [31] is: group: developmental, developmental / developmental malformation / bone / short + developmental / developmental malformation / bone / supernumerary.
Setting [32] is: group: developmental, developmental / developmental malformation / bone / short + developmental / developmental malformation / bone / supernumerary + ….
[33] abbreviates: group: maternal, systemic / in life observation / body weight / body weight gain + systemic / in life observation / food consumption / food consumption.
Where [34] appears, read: group: maternal, systemic / in life observation / body weight / body weight gain + systemic / in life observation / food consumption / food consumption + ….
[35] abbreviates: group: parental, systemic / pathology gross / spleen / discolored + systemic / pathology microscopic / spleen / congestion + systemic / pathology microscopic….
Setting [36] is: group: reproductive, reproductive / offspring survival early / litter size / litter size.
Where [37] appears, read: systemic / in life observation / clinical signs / fur (altered appearance) + systemic / in life observation / clinical signs / urine, ….
Setting [38] is: systemic / hematology / erythrocyte (rbc) count differential / erythrocyte (rbc) + systemic / hematology / hematocrit (hct) / hematocrit (….
The mark [39] stands for this setting: systemic / hematology / anemia / anemia - nos + systemic / hematology / erythrocyte (rbc) count differential / erythrocyte (rbc) + systemic….
Where [40] appears, read: systemic / in life observation / clinical signs / fur (altered appearance) + systemic / pathology gross / penis / prolapse.
The mark [41] stands for this setting: systemic / clinical chemistry / cholesterol / cholesterol + systemic / clinical chemistry / bilirubin / total bilirubin + systemic / ….
Setting [42] is: systemic / hematology / platelet / platelet + systemic / organ weight / spleen / absolute + systemic / organ weight / spleen / relative to ….
The mark [43] stands for this setting: systemic / in life observation / clinical signs / erythema.
The mark [44] stands for this setting: systemic / in life observation / clinical signs / erythema + systemic / in life observation / body weight / body weight + systemic / in life….
The mark [45] stands for this setting: group: developmental, developmental / developmental malformation / eye / anophthalmia + developmental / developmental malformation / eye / microphthalmia + ….
[46] abbreviates: group: maternal, systemic / in life observation / body weight / body weight gain + systemic / in life observation / clinical signs / labored respiration.
The mark [47] stands for this setting: group: maternal, systemic / in life observation / body weight / body weight gain + systemic / in life observation / clinical signs / labored respiration + ….

On to `ON=C1CCCCC1` [Cyclohexanone oxime], for which, in the series with mouse [1] (setting [18]), the LOAEL was > 1150 mg/kg/day and the NOAEL is ≥ 1150 mg/kg/day. Besides, in the series on mouse [1] (setting [19]), the LEL was determined as 132 mg/kg/day and the NEL is < 132 mg/kg/day.

With `COc1c(Cl)ccc(Cl)c1C(=O)O` [Dicamba], the LOAEL with mouse [2] (setting [20]) is 358 mg/kg/day; in the series with rat [3] (setting [21]), 122 mg/kg/day; in the series with rat [3] (group: parental, systemic / organ weight / liver / relative to body weight), 419 mg/kg/day; in the series on rat [4], > 125 mg/kg/day; in the series on dog [5] (setting [24]), > 52 mg/kg/day; with rabbit [6] (setting [25]) it was 300 mg/kg/day. Also, the LOAEL in the series with rabbit [6] (setting [26]) turned out to be 150 mg/kg/day. In addition, the NOAEL was 108 mg/kg/day in the series on mouse [2] (setting [20]); 40 mg/kg/day in the series on rat [3] (group: offspring, systemic / in life observation / body weight / offspring (pup) weight + systemic / organ weight / liver / relative to body weight); 122 mg/kg/day with rat [3] (group: parental, systemic / organ weight / liver / relative to body weight + systemic / in life observation / body weight / body weight + systemic / organ …); ≥ 125 mg/kg/day in the series with rat [4]; ≥ 52 mg/kg/day with dog [5] (setting [24]); 150 mg/kg/day in the series on rabbit [6] (setting [25]). For the same compound, the NOAEL in the series with rabbit [6] (setting [27]) stood at 30 mg/kg/day. Besides, the LEL came to 121 mg/kg/day in the series on mouse [2] (systemic / organ weight / kidney / nos); 40 mg/kg/day in the series with rat [3] (setting [22]); 40 mg/kg/day with rat [3] (setting [23]); 125 mg/kg/day in the series with rat [4]; 11 mg/kg/day with dog [5] (systemic / pathology microscopic / lung / [other] + systemic / in life observation / clinical signs / inappetence); 300 mg/kg/day in the series with rabbit [6] (setting [25]). In addition, the LEL in the series on rabbit [6] (setting [26]) stood at 150 mg/kg/day. Besides, the NEL is 18.8 mg/kg/day in the series on mouse [2] (systemic / organ weight / kidney / nos + systemic / in life observation / body weight / body weight gain); < 40 mg/kg/day in the series with rat [3] (setting [22]); < 40 mg/kg/day with rat [3] (setting [23]); 12.5 mg/kg/day in the series with rat [4]; 2 mg/kg/day with dog [5] (systemic / pathology microscopic / lung / [other]); 150 mg/kg/day in the series on rabbit [6] (setting [25]). Moreover, the NEL in the series with rabbit [6] (setting [27]) is 30 mg/kg/day.

Take `CCC(C)n1c(=O)[nH]c(C)c(Br)c1=O` (stereo unspecified) [Bromacil]: the LEL in the series with mouse [7] was 36 mg/kg/day; with rabbit [8] (setting [28]), 500 mg/kg/day; in the series with rabbit [8] (setting [29]) it was 300 mg/kg/day; in the series with rat [9] (setting [30]) it was 1.96 mg/kg/day; in the series on rat [10] (setting [31]), 200 mg/kg/day; in the series with rat [10] (setting [33]), 75 mg/kg/day. Moreover, the LOAEL in the series with mouse [7] is 36 mg/kg/day; with rabbit [8] (setting [28]), > 500 mg/kg/day; in the series on rabbit [8] (setting [29]) it was 300 mg/kg/day; in the series on rat [9] (systemic / in life observation / body weight / body weight gain), 9.82 mg/kg/day; in the series on rat [10] (setting [31]), 200 mg/kg/day; in the series on rat [10] (setting [33]) it was 75 mg/kg/day. Besides, the NEL is < 36 mg/kg/day with mouse [7]; 300 mg/kg/day with rabbit [8] (setting [28]); 100 mg/kg/day in the series on rabbit [8] (setting [29]); < 1.96 mg/kg/day in the series with rat [9] (setting [30]); 75 mg/kg/day in the series on rat [10] (setting [32]); 20 mg/kg/day in the series on rat [10] (setting [34]). Further, the NOAEL with mouse [7] is < 36 mg/kg/day; in the series with rabbit [8] (setting [28]) it was ≥ 500 mg/kg/day; with rabbit [8] (setting [29]) it was 100 mg/kg/day; in the series with rat [9] (systemic / in life observation / body weight / body weight gain + systemic / in life observation / body weight / body weight + systemic / …) it was 1.96 mg/kg/day; in the series with rat [10] (setting [32]), 75 mg/kg/day; with rat [10] (setting [34]) it was 20 mg/kg/day.

`c1ccc(Nc2ccccc2)cc1` [Diphenylamine]: the LEL in the series with rat [11] (setting [21]) turned out to be 115 mg/kg/day; in the series with rat [11] (setting [35]) it was 40 mg/kg/day; in the series with rat [11] (setting [36]) it was 399 mg/kg/day; in the series with rat [12] (systemic / pathology microscopic / spleen / hematopoietic cell proliferation erythrocytic) it was 95.8 mg/kg/day; in the series on rat [13] (systemic / hematology / erythrocyte (rbc) count differential / erythrocyte (rbc) + systemic / pathology gross / spleen / discolored + …), 24.9 mg/kg/day; with mouse [14] (setting [40]), 73.2 mg/kg/day. Also, in the series on dog [15] (setting [42]), the LEL was determined as 10 mg/kg/day. For the same compound, the LOAEL in the series with rat [11] (setting [21]) amounted to 115 mg/kg/day; in the series with rat [11] (setting [35]) it was 40 mg/kg/day; with rat [11] (setting [36]), 399 mg/kg/day; in the series on rat [12] (setting [37]) it was 547 mg/kg/day; in the series with rat [13] (setting [38]), 138 mg/kg/day; with mouse [14] (setting [39]), 368 mg/kg/day. The lowest-observed-adverse-effect level (LOAEL) in the series with dog [15] (setting [41]) was 50 mg/kg/day. For the same compound, the NEL in the series with rat [11] (setting [21]) was 40 mg/kg/day; with rat [11] (setting [35]), < 40 mg/kg/day; with rat [11] (setting [36]), 115 mg/kg/day; with rat [12] (setting [37]), 9.6 mg/kg/day; in the series with rat [13] (setting [38]) it was 7.5 mg/kg/day; in the series with mouse [14] (setting [40]), < 73.2 mg/kg/day. In addition, in the series on dog [15] (setting [42]), the NEL is < 10 mg/kg/day. Also, the NOAEL is 40 mg/kg/day in the series on rat [11] (setting [21]); < 40 mg/kg/day with rat [11] (setting [35]); 115 mg/kg/day in the series with rat [11] (setting [36]); 95.8 mg/kg/day with rat [12] (setting [37]); 24.9 mg/kg/day with rat [13] (setting [38]); 73.2 mg/kg/day in the series on mouse [14] (setting [39]). Besides, the NOAEL in the series on dog [15] (setting [41]) was found to be 10 mg/kg/day.

On to `Cc1cc(O)ccc1Cl` [4-Chloro-3-methylphenol], for which the LOAEL in the series on rabbit [16] (setting [43]) was 10 mg/kg/day; in the series on rat [17] (setting [45]) it was 300 mg/kg/day; with rat [17] (setting [46]) it was 100 mg/kg/day. For the same compound, the results for the NOAEL with rabbit [16] (setting [43]), in the series on rat [17] (setting [45]) and in the series with rat [17] (setting [47]) were < 10 mg/kg/day, 100 mg/kg/day and 30 mg/kg/day, respectively. The LEL was found to be 10 mg/kg/day in the series with rabbit [16] (setting [44]), 300 mg/kg/day in the series on rat [17] (setting [45]) and 100 mg/kg/day in the series with rat [17] (setting [46]). For the same compound, the NEL in the series on rabbit [16] (setting [44]) was < 10 mg/kg/day; with rat [17] (setting [45]), 100 mg/kg/day; in the series on rat [17] (setting [47]), 30 mg/kg/day.

The LOAEL is the lowest tested level that showed an adverse finding. By NOAEL is commonly meant the highest tested level that showed no adverse finding.
